Assays:
AS-HBE cells = assay: Short-circuit current in AS-HBE cells (Test Example 3); format: cell-based, human; conditions: 250 nM
Protocol: AS-HBE is a human bronchial epithelial (HBE) cell line expressing the first 131 nucleotides of CFTR in the antisense direction (antisense CFTR 16HBE14o- cells, HBE-AS; also called AS-HBE). As a result, AS-HBE cells lack CFTR transcripts and lack functional CFTR. However, AS-HBE cells do express functional ClC-2 in a manner identical to the parental cell line, 16HBE14o- cells, from which they were derived. AS-HBE cells were maintained at 37° C. in 5%/95% CO2/O2 in Minimal Essential Medium (MEM; GIBCO/Invitrogen, Carlsbad, Calif.) supplemented with Earl's salt, L-glutamine (GIBCO/Invitrogen), 10% heat-inactivated fetal bovine serum, 100 units/ml penicillin, 100 μg/ml streptomycin sulfate and 400 μg/ml G-418 (GIBCO/Invitrogen). The cells were grown in air-liquid interface on Biocoat inserts (Fisher Scientific, Chicago, Ill.), coated with human plasma fibronectine (GIBCO/Invitrogen) and vitrogen (Cohesion Technologies, Palo Alto, Calif.).
According to the same manner as described in Example 2, Short-circuit current measurements in the AS-HBE cells were carried out. Changes in short-circuit current (ΔIsc) were normalized to the filter area (0.3 cm^2) and reported as ΔIsc/cm^2.
Test compounds were used at a final concentration of 250 nM.

[1] = tested on: non-transfected HEK cells; assay: Whole cell patch clamp, non-transfected HEK cells (Test Example 1); format: cell-based, human; conditions: for Effect on Cl currents in non-transfected cells (in words): 1 μM; for Cl channel activity: 1 μM in 1% DMSO, non-transfected HEK cells
From the text: (§1) Whole cell patch clamp method was used to assess the effect of compound 1 (13,14-dihydro-15-keto-16,16-difluoro-PGE1) and compound 2 (13,14-dihydro-15-keto-16,16-difluoro-18 (S)-methyl-PGE1) on recombinant hClC-2 chloride channel. In this example, effects of the respective compounds on Human Epithelial Kidney (HEK) cells transfected with human ClC-2 (hClC-2) were examined, and the results were compared with those on non-transfected HEK cells.
(§2) ClC-2 transfected human epithelial kidney (HEK) cells were prepared and used. HEK-293 cells obtained from American Type Culture Collection (ATCC; Manassas, Va.) were transfected with His- and T7-tagged human ClC-2 cDNA in the mammalian expression vector pcDNA3.1 (GIBCO/Invitrogen) using Lipofectamine (GIBCO/Invitrogen) for 5 h at 37° C. in serum-free medium. Cells were then resuspended in the serum-containing medium and cultured in the presence of 300 μg/ml G-418 (GIBCO/Invitrogen). The surviving cells were then expanded, tested to confirm expression of Cl- current and ClC-2 mRNA, and the cells expressing ClC-2 mRNA were frozen to store. Upon studies, the stored cells were thawed and maintained at 37° C. in 5%/95% CO2/O2 in MEM (GIBCO/Invitrogen) supplemented with 5% inactivated horse serum, 0.1 mM nonessential amino acids, 2 mM L-glutamine, 1 mM sodium pyruvate, 100 units/ml penicillin, and 100 μg/ml streptomycin sulfate.
(§3) In the whole cell patch clamp measurements, currents were elicited by voltage clamp pulses (1500 ms duration) between +40 mV and −140 mV, in 20 mV increments, from the beginning holding potential of −30 mV. Currents were measured 50-100 ms after start of the pulse. The external solution was normal Tyrode solution containing 135 mM NaCl, 1.8 mM CaCl2, 1 mM MgCl2, 5.4 mM KCl, 10 mM glucose, and 10 mM HEPES (pH 7.35). The pipette solution was 130 mM CsCl, 1 mM MgCl2, 5 mM EGTA, and 10 mM HEPES (pH 7.35); also present in the pipette was 1 mM ATP—Mg^2+ (pH 7.4).
(§4) Pipettes were prepared from borosilicate glass and pulled by a two stage Narashige puller to give 1-1.5 MΩ resistance. Data were acquired with Axopatch CV-4 headstage with Digidata 1200 digitizer and Axopatch 1D amplifier. Data were analyzed using pClamp 6.04 (Axon Instruments, Foster City, Calif.), Lotus 123 (IBM) and Origin (Microcal) software.
(§5) Compound 1 and compound 2 were used at a final concentration of 1 μM in 1% DMSO.

[2] = target: T1, recombinant human ClC-2 Chloride Channels (Homo sapiens, UniProt P51788); assay: Whole cell patch clamp, ClC-2 transfected HEK cells, current increase (Test Example 4); format: cell-based; conditions: 100 nM, change from control
T1 construct: His; T7; expressed in transfected cells; host or cells: HEK-293 (ATCC), pcDNA3.1, G-418 selected
T1 sequence (P51788 1-898): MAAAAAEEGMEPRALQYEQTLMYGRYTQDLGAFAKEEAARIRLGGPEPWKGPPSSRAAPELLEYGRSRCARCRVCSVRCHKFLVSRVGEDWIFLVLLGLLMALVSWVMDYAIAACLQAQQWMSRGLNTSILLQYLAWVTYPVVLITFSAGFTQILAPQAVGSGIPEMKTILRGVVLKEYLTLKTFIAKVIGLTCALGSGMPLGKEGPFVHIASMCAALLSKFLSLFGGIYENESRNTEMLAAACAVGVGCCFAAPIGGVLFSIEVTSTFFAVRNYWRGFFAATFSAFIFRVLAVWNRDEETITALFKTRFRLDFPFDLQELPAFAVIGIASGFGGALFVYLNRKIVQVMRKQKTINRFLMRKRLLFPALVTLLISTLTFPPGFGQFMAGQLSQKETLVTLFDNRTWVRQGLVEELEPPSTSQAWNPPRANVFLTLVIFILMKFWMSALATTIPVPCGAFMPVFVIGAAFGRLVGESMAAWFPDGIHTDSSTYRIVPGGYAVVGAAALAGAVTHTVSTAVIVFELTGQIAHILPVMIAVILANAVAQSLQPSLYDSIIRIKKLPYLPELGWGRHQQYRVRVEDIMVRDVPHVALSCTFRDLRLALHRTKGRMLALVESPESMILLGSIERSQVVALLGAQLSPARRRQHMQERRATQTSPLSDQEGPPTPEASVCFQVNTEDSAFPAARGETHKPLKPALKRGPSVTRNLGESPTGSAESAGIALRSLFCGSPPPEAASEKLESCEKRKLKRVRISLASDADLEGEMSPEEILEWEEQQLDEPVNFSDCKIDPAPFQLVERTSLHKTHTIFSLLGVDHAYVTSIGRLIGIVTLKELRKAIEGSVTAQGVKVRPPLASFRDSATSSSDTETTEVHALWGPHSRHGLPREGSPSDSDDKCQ
Protocol: According to the same manner as described in Example 1, whole cell patch clamp measurements were carried out.
Test compounds were used at a final concentration of 100 nM.

[3] = target: T2, recombinant hClC-2 chloride channel (Homo sapiens, UniProt P51788); assay: Whole cell patch clamp, HEK cells transfected with hClC-2 (Test Example 1); format: cell-based; conditions: for Effect on Cl currents in HEK cells transfected with hClC-2 (in words): 1 μM; for Cl channel activity: 1 μM in 1% DMSO, HEK cells transfected with hClC-2
T2 construct: His; T7; expressed in transfected cells; host or cells: HEK-293 (ATCC), pcDNA3.1, G-418 selected
T2 sequence (P51788 1-898): T1 sequence (P51788 1-898)
From the text: as §1, §2, §3, §4, §5

| Compound | Changes in short-circuit currents (Δlsc) (AS-HBE cells) [μA/cm^2] | Effect on Cl currents in non-transfected cells (in words) [1] | Cl channel activity [1] [nS/pF] | Activation of ClC-2 channels ΔpA/pF [2] [pA/pF] | Effect on Cl currents in HEK cells transfected with hClC-2 (in words) [3] | Cl channel activity [3] [nS/pF] |
| --- | --- | --- | --- | --- | --- | --- |
| CCCCC(F)(F)[C@@]1(O)CC[C@H]2[C@@H](CC(=O)[C@@H]2CCCCCCC(=O)O)O1 [Compound 1, (−)-7-[(2R,4aR,5R,7aR)-2-(1,1-difluoropentyl)-2-hydroxy-6-oxoperhydrocyclopenta[b]pyran-5-yl]heptanoic acid] | 4.3 | did not increase | 0.035 ± 0.014 | 39.8 | activated | 1.820 ± 0.114 |
| CC[C@H](C)CC(F)(F)C(=O)CC[C@H]1[C@H](O)CC(=O)[C@@H]1CCCCCCC(=O)O [Compound 2, 13,14-dihydro-15-keto-16,16-difluoro-18(S)-Methyl-PGE1] | 9.0 | did not increase | 0.036 ± 0.010 | 22.6 | activated | 0.558 ± 0.100 |

Source: patent publication US7253295B2, “Chloride channel opener” (Sucampo AG, priority 2001, dated 2007)
